Measured values published in patent publication US7943628B2, “Pyrimidine derivatives” (Pfizer Limited, priority 2005, dated 2011).

Molecular target: T1, histamine H4 receptor (Homo sapiens, UniProt Q9H3N8)
T1 construct: expressed in transfected cells; host or cells: CHO cells
Assay: H4 binding, method 1 ([3H]-histamine filtration binding on CHO cell membranes)
Conditions: 1.5 h
Protocol: Cell pellets from CHO cells expressing the histamine H4 receptor were homogenised in ice-cold 50 mM Tris-HCl/0.5 mM CaCl2 buffer containing a protease inhibitor cocktail (Roche®, United Kingdom) using a ground glass homogeniser. Homogenates were centrifuged at 48000 g for 30 min at 4° C. The membrane pellet was resuspended in fresh buffer and the centrifugation step was repeated as described above. The membrane pellet was resuspended in 50 mM Tris-HCl in the same volume as the original cell pellet. Aliquots of membrane preparations were stored at −80° C. and were used for [^3H]-Histamine binding experiments.
Cell membranes (20-35 μg/well) were incubated for 90 minutes shaking at room temperature with 3 nM [2,5-^3H]Histamine dihydrochloride (30-60 Ci/mmol) in 50 mM Tris-HCl (pH 7.4), with or without competing H4 ligands. The reaction was terminated by rapid filtration through 0.5% polyethylenimine-soaked Unifilter GF/B plates (Packard) followed by three washes with 1 ml ice-cold 50 mM Tris-HCl. Filters were dried for 45 min at 45° C. and bound radiolabel was determined using scintillation counting techniques. Non-specific binding was defined with 10 μM JNJ7777120.

| SMILES | inhibition at 10 µM [%] | inhibition at 20 µM [%] |
| --- | --- | --- |
| CC(C)(C)CNc1cc(N2CCN(C3CNC3)CC2)ncn1 [Example 303, 6-(4-Azetidin-3-ylpiperazin-1-yl)-N-(2,2-dimethylpropyl)pyrimidin-4-amine] | 38 |  |
| CC(C)(C)CNc1cc(N2CCN(C3CCCCC3)CC2)ncn1 [Example 260, 6-(4-Cyclohexylpiperazin-1-yl)-N-(2,2-dimethylpropyl)pyrimidin-4-amine] | 100 |  |
| CC(C)(C)CCNc1cc(N[C@H]2CCN(Cc3ccccc3)C2)ncn1 [Example 289, N-[(3S)-1-Benzylpyrrolidin-3-yl]-N′-(3,3-dimethylbutyl)pyrimidine-4,6-diamine] | 44 |  |
| CN[C@@H]1CCN(c2ncnc(NCC(C)(C)C)c2C)C1 [Example 326, N-(2,2-Dimethylpropyl)-5-methyl-6-[(3R)-3-(methylamino)pyrrolidin-1-yl]pyrimidin-4-amine] |  | 48 |
| N[C@@]12C[C@@H]1CN(c1cc(NCC3CC3)ncn1)C2 (relative stereo) [Example 304, (1S*,5R*)-3-{6-[(Cyclopropylmethyl)amino]pyrimidin-4-yl}-3-azabicyclo[3.1.0]hexan-1-amine] | 19 |  |
| CCN(CC)CCN(C)c1cc(NCC2CC2)ncn1 [Example 306, N′-(Cyclopropylmethyl)-N-[2-(diethylamino)ethyl]-N-methylpyrimidine-4,6-diamine] | 18 |  |

Same assay, conditions: H4 binding, method 1; Ki calculated from IC50 (Cheng-Prussoff)

| SMILES | Ki [nM] |
| --- | --- |
| CNc1cc(N2CCC(N)CC2)nc(N)n1 [Example 284, 6-(4-Aminopiperidin-1-yl)-N^4-methylpyrimidine-2,4-diamine] | 1720 |
| CC(C)(C)CCNc1cc(N2CC[C@@H](N)C2)nc(N)n1 [Example 225, 6-[(3R)-3-Aminopyrrolidin-1-yl]-N^4-(3,3-dimethylbutyl)pyrimidine-2,4-diamine] | 102 |
| CC(C)(C)CCNc1cc(N[C@H]2CCN(Cc3ccc(CO)o3)C2)ncn1 [Example 274, (5-{[(3S)-3-({6-[(3,3-Dimethylbutyl)amino]pyrimidin-4yl}amino)pyrrolidin--1-yl]methyl}-2-furyl)methanol] | 1070 |
| CN[C@H]1CCN(c2cc(NCC(C)(C)C)nc(N)n2)C1 [Example 177, N^4-(2,2-Dimethylpropyl)-6-[(3S)-3-(methylamino)pyrrolidin-1-yl]pyrimidine-2,4-diamine] | 16 |
| CNc1cc(N2CC[C@@H]3NCC[C@@H]3C2)nc(N)n1 (racemic) [Example 200, N^4Methyl-6-[(3aR*,7aS*)-octahydro-5H-pyrrolo[3,2-c]pyridin-5-yl]pyrimidine-2,4-diamine] | 34 |
| CCCNc1cc(N2CCNCC2)nc(N)n1 [Example 163, 6-Piperazin-1-yl-N^4-propylpyrimidine-2,4-diamine] | 3.78 |
| CCC(C)CNc1cc(N2CC[C@@H](N)C2)nc(N)n1 (stereo partly drawn) [Example 195, 6-[(3R)-3-Aminopyrrolidin-1-yl]-N^4-(2-methylbutyl)pyrimidine-2,4-diamine] | 32.6 |
| CN(C)C1CN(c2cc(NCCC(C)(C)C)ncn2)C1 [Example 4, 6-[3-(Dimethylamino)azetidin-1-yl]-N-(3,3-dimethylbutyl)pyrimidin-4-amine] | 374 |
| CC(C)CNc1cc(N2CCCNCC2)nc(N)n1 [Example 133, 6-(1,4-Diazepan-1-yl)-N^4-isobutylpyrimidine-2,4-diamine] | 0.653 |
| CC(C)(C)CCNc1cc(N[C@H]2CCNC2)ncn1 [Example 6, N-(3,3-Dimethylbutyl)-N′-[(3S)-pyrrolidin-3-yl]pyrimidine-4,6-diamine] | 502 |
| CC(C)(C)CNc1cc(N2CCNCC2)nc(N)n1 [Example 156, N^4-(2,2-Dimethylpropyl)-6-piperazin-1-ylpyrimidine-2,4-diamine] | 2.44 |
| CC(C)Nc1cc(N2CCNCC2)nc(N)n1 [Example 187, N^4-Isopropyl-6-piperazin-1-ylpyrimidine-2,4-diamine] | 22.4 |
| CC(C)(C)CCNc1cc(N[C@@H]2CCNC2)ncn1 [Example 7, N-(3.3-Dimethylbutyl)-N′-[(3R)-pyrrolidin-3-yl]pyrimidine-4,6-diamine] | 939 |

Second part, the compound after the results:

| Ki [nM] | SMILES |
| --- | --- |
| 2.49 | CNC1CN(c2cc(NCc3ccc(F)cc3F)nc(N)n2)C1 [Example 157, N^4-(2,4-Difluorobenzyl)-6-[3-(methylamino)azetidin-1-yl]pyrimidine-2,4-diamine] |
| 50 | NCCNc1cc(NCC2CC2)nc(N)n1 [Example 212, N^4-(2-Aminoethyl)-N^6-(cyclopropylmethyl)pyrimidine-2,4,6-triamine] |
| 623 | CNc1cc(N2CC[C@@H](NC)C2)ncn1 [Example 262, N-Methyl-6-[(3R)-3-(methylamino)pyrrolidin-1-yl]pyrimidin-4-amine] |
| 271 | CC(C)CCNc1cc(N[C@H]2CCNC2)ncn1 [Example 107] |
| 11.5 | CCC(C)Nc1cc(N2CC(NC)C2)ncn1 (centres unmarked) [Example 153, N-(sec-Butyl)-6-[3-(methylamino)azetidin-1-yl]pyrimidin-4-amine] |
| 28.7 | CC(C)(C)CNc1cc(N2CC(N3CCCC3)C2)ncn1 [Example 192, N-(2,2-Dimethylpropyl)-6-(3-pyrrolidin-1-ylazetidin-1-yl)pyrimidin-4-amine] |
| 113 | CC(C)NC1CN(c2cc(NCC(C)(C)C)ncn2)C1 [Example 226, N-(2,2-Dimethylpropyl)-6-[3-(isopropylamino)azetidin-1-yl]pyrimidin-4-amine] |
| 2.59 | CCCC(C)Nc1cc(N2CC(NC)C2)nc(N)n1 (centres unmarked) [Example 158, 6-[3-(Methylamino)azetidin-1-yl]-N^4-(1-methylbutyl)pyrimidine-2,4-diamine] |
| 705 | CCNc1cc(N2CCC(C)(N)C2)nc(N)n1 (centres unmarked) [Example 265, 6-(3-Amino-3-methylpyrrolidin-1-yl)-N^4-ethylpyrimidine-2,4-diamine] |
| 8.55 | CCNc1cc(N2CC(N)C2)nc(N)n1 [Example 170, 6-(3-Aminoazetidin-1-yl)-N^4-ethylpyrimidine-2,4-diamine] |
| 355 | C[C@H]1CN(c2cc(NCc3ccccc3)nc(N)n2)CCN1 [Example 251, N^4-Benzyl-6-[(3S)-3-methylpiperazin-1-yl]pyrimidine-2,4-diamine] |
| 1550 | c1ccc(CNc2cc(N[C@H]3CCNC3)ncn2)cc1 [Example 281, N-Benzyl-N′-[(3S)-pyrrolidin-3-yl]pyrimidine-4,6-diamine] |
| 25.8 | CNC1CN(c2cc(NC3CC3)ncn2)C1 [Example 189, N-Cyclopropyl-6-[3-(methylamino)azetidin-1-yl]pyrimidin-4-amine] |

Same assay, conditions: top dose 10 μM

| SMILES | Method 1, activity at top dose (10 μM) |
| --- | --- |
| c1nc(NC2CC2)cc(N2CCCNCC2)n1 [Example 314, N-Cyclopropyl-6-(1,4-diazepan-1-yl)pyrimidin-4-amine] | No activity at top |
| c1nc(NCC2CC2)cc(N2CCN(C3CNC3)CC2)n1 [Example 308, 6-(4-Azetidin-3-ylpiperazin-1-yl)-N-(cyclopropylmethyl)pyrimidin-4-amine] | No activity at top |
| Cn1ccnc1CN1CCN(c2cc(NCCC(C)(C)C)ncn2)CC1 [Example 299, N-(3,3-Dimethylbutyl)-6-{4-[(1-methyl-1H-imidazol-2-yl)methyl]piperazin-1-yl}pyrimidin-4-amine] | No activity at top |
